Molecular target: T1, 5-HT3 -receptor (Rattus norvegicus, UniProt P35563)
T1 construct: Transient reduction in heart rate and blood pressure induced by intravenous administration of serotonin; from tissue
T1 sequence (P35563 24-483): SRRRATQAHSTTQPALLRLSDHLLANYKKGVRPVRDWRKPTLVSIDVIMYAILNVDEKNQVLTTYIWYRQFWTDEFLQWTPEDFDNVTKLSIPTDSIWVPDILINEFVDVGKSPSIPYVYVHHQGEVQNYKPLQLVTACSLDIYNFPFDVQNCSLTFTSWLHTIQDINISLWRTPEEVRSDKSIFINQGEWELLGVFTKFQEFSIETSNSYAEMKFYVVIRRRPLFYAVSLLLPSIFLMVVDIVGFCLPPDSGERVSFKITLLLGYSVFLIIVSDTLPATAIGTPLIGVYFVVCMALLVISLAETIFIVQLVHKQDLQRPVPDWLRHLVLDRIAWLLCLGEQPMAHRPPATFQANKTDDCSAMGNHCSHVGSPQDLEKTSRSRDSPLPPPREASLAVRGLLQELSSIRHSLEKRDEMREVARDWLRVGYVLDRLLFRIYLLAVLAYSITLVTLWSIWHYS
Experiment: Antagonism against 5-HT3-receptor: serotonin-induced Bezold-Jarish (BJ) reflex in anesthetized rats
Type: in vivo
Details: iv, 10 min, i.v., urethane-anesthetized Wistar male rats, given 10 minutes before serotonin, read-out: BJ Reflex Inhibitory Activity ED50
Procedure: Nine-week-old Wistar male rats were anesthetized by intraperitoneal administration of 1 g/kg of urethane, and blood pressure and heart rate were measured under artificial respiration. Transient reduction in heart rate and blood pressure induced by intravenous administration of serotonin or 2-methylserotonin which is a selective agonist of 5-HT3 was taken as an index of the reaction via 5-HT3 receptor [Bezold-Jarish reflex; Paintal, A. S., Pysiolo. Rev., Vol. 53, p. 159 (1973)].
Inhibitory activity of the compound of the present invention on serotonin-induced Bezold-Jarish (BJ) reflex in rats is shown in Table 1 below.

Compound | ED50 [µg/kg]
O=C(C1CCc2nc[nH]c2C1)n1c(=O)[nH]c2ccccc21 (centres unmarked) [Example 9, 1-[(4,5,6,7-tetrahydrobenzimidazol-5-yl)carbonyl]-2,3-dihydrobenzimidazol-2-one] | 0.8
O=C(C1CCc2nc[nH]c2C1)N1CCc2ccccc21.O=C(O)/C=C/C(=O)O (centres unmarked) [Example 2, 5-[(2,3-Dihydroindol-1-yl)carbonyl]-4,5,6,7-tetrahydrobenzimidazole fumarate] | 0.29

— patent US5344927A, “Tetrahydrobenzimidazole derivatives and pharmaceutical compositions containing same” (Yamanouchi Pharmaceutical Co., Ltd., priority 1989, dated 1994)
